Test results as given in PMC4472440, “Structure-Dependent Immune Modulatory Activity of Protegrin-1 Analogs” (Antibiotics, 2014).
Where no end group is shown, it is not given here.

What was measured:
[1] = tested on: meningococcal LOS (TLR4 ligand); test: Inhibition of meningococcal LOS activity in macrophages (Table 1); assay type: cell-based, Neisseria meningitidis; settings: peptide 2 µg/mL preincubated with meningococcal LOS 30 min at 37 °C, macrophages stimulated overnight; read-out behind the % not stated in Table 1
Experimental: (§1) Human THP-1 (monocyte-like cells) and murine RAW264 macrophages were stimulated with TLR ligands with or without preincubation with PG-1 and its analogs (Table 1). Purified meningococcal CPS samples were freshly dissolved in pyrogen-free sterile H2O at 1 mg/mL stock concentration and vortexed for 2 min. Working CPS concentrations (ranging from 100 µg/mL to 1 µg/mL) were made in duplicate wells using sterile PBS by serial fold dilutions in the 96-well tissue culture plates (Becton Dickinson, Franklin Lakes, NJ, USA) at 50 µL final volumes. PG-1 analogs (2 µg/mL) or PBS equivalent volumes were added to designated wells and preincubated for 30 min at 37 °C. Freshly grown THP-1 cells and murine macrophages, each adjusted to 10^6 cell/mL and 250 µL aliquots, were dispensed into each well at a final cell density of 250 × 10^3 in the designated 96-well plates. The plates were incubated overnight at 37 °C with 5% CO2 and humidity. Supernatants from stimulated cells were harvested and stored at −20 °C until use.
(§2) The cytokines TNFα and IL-1β, released from THP-1 cells, were quantified by DuoSet ELISA (R&D Systems), as previously described. […]
(§3) Freshly grown adherent RAW264 macrophages were harvested, washed and re-suspended in Dulbecco’s complete media, counted and adjusted to 10^6 cell/mL. […] Nitric oxide release was quantified using the Greiss chemical method, as previously described.

[2] = tested on: meningococcal capsular polysaccharide (CPS) polymers (TLR2 and TLR4 ligand); test: Inhibition of meningococcal CPS polymer activity in macrophages (Table 1); assay type: cell-based, Neisseria meningitidis; settings: peptide 2 µg/mL preincubated with meningococcal CPS polymers 30 min at 37 °C, macrophages stimulated overnight; read-out behind the % not stated in Table 1
Experimental: as §1, §2, §3

[3] = tested on: RAW264 macrophages induced with meningococcal LOS; test: Nitric oxide release from RAW264 macrophages induced with meningococcal LOS, Greiss method; assay type: cell-based, murine; settings: RAW264, LOS doses preincubated with 2 µg/mL peptide 30 min at 37 °C, overnight, Figure 6, result in words
Experimental: Figure 6 PG-1 analogs neutralized meningococcal LOS bioactivity and inhibited nitric oxide release. Nitric oxide was released from murine RAW264 macrophages induced overnight with meningococcal LOS doses pre-incubated with or without 2 µg/mL of PG-1 or its analogs for 30 min at 37 °C. Nitric oxide release was measured by the Greiss method. Error bars represent ± SD from the mean of duplicate measurements. This experiment is representative of two independent experiments.
as §1, with “Freshly grown THP-1 cells and murine macrophages, each adjusted to 10^6 cell/mL and 250 µL aliquots, were dispensed into each well at a final cell density of 250 × 10^3 in the designated 96-well plates. The plates were incubated overnight at 37 °C with 5% CO2 and humidity. Supernatants from stimulated cells were harvested and stored at −20 °C until use.” left out
as §3

[4] = tested on: RAW264 macrophages induced with meningococcal CPS polymers; test: Nitric oxide release from RAW264 macrophages induced with meningococcal CPS polymers, Greiss method; assay type: cell-based, murine; settings: RAW264, CPS doses preincubated with 2 µg/mL peptide 30 min at 37 °C, overnight, Figure 7, result in words
Experimental: Figure 7 PG-1 analogs neutralized meningococcal capsular polysaccharide (CPS) polymer activity and inhibited nitric oxide release. CPS polymers were purified from the endotoxin-deficient serogroup B meningococcal NMB-lpxA mutant designated CPS. Nitric oxide was released from murine RAW264 macrophages induced overnight with doses of meningococcal CPS polymers pre-incubated with or without 2 µg/mL of PG-1 or its analogs for 30 min at 37 °C. Nitric oxide release was measured by the Greiss method. Error bars represent ±SD from the mean of duplicate measurements. This experiment is representative of two independent experiments.
Human THP-1 (monocyte-like cells) and murine RAW264 macrophages were stimulated with TLR ligands with or without preincubation with PG-1 and its analogs (Table 1). Purified meningococcal CPS samples were freshly dissolved in pyrogen-free sterile H2O at 1 mg/mL stock concentration and vortexed for 2 min. […]
as §3

Substance	LOS activity inhibition (%) [1] [%]	CPS activity inhibition (%) [2] [%]	Inhibition of nitric oxide release (neutralization of LOS) [3]	Inhibition of nitric oxide release (neutralization of CPS) [4]
Compound 8: linearized non-cysteine PG-1 analog with alanine replacements (RGGRLAYARRRFAVAVGR-NH2)	33	23	failed to inhibit	failed to inhibit
Protegrin-1 (RGGRLCYCRRRFCVCVGR; not fully specified; cysteine pairing not given here) [Compound 1, native porcine PG-1, 18-residue β-hairpin peptide with two disulfide bridges]	99.9	99		
